Experimental data: patent publication US5358951A, “Angiotensin II receptor blocking 2, 3, 6 substituted quinazolinones” (American Cyanamid Company, priority 1993, dated 1994)

System: vasopressor response of angiotensin II
Assay: AII Challenge: antagonism of angiotensin II vasopressor response;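 as to Response Average Change: post-dose Angiotensin II-evoked rise in systolic blood pressure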
Assay type: in vivo
Settings: for inhibition in vivo at 3 mg/kg / inhibition in vivo at 10 mg/kg / inhibition in vivo at 5 mg/kg: Rattus norvegicus; for inhibition in vivo at 3 mg/kg / inhibition in vivo at 10 mg/kg: iv; for inhibition in vivo at 5 mg/kg: po
From the text: Conscious Male Okamoto-Aoki SHR, 16-20 weeks old, weighing approximately 330 g are purchased from Charles River Labs (Wilmington, Mass.). Conscious rats are restrained in a supine position with elastic tape. The area at the base of the tail is locally anesthetized by subcutaneous infiltration with 2% procaine. The ventral caudal artery and vein are isolated, and a cannula made of polyethylene (PE) 10-20 tubing (fused together by heat) is passed into the lower abdominal aorta and vena cava, respectively. The cannula is secured, heparinized (1,000 I.U./ml), sealed and the wound is closed. The animals are placed in plastic restraining cages in an upright position. The cannula is attached to a Statham P23 Db pressure transducer, and pulsatile blood pressure is recorded to 10-15 minutes with a Gould Brush recorder. (Chan et al., (Drug Development Res., 18:75-94, 1989). Angiotensin II (human sequence, Sigma Chem. Co., St. Louis, Mo.) of 0.05 and 0.1 ug/kg i.v. is injected into all rats (predosing response). Then a test compound, vehicle or a known angiotensin II antagonist is administered i.v., i.p. or orally to each set of rats. The two doses of angiotensin II are given to each rat again at 30, 60, 90, 120, 180, 240 and 300 minutes post dosing the compound or vehicle. The vasopressor response of angiotensin II is measured for the increase in systolic blood pressure in mmHg. The percentage of antagonism or blockade of the vasopressor response of angiotensin II by a compound is calculated using the vasopressor response (increase in systolic blood pressure) of angiotensin II of each rat predosing the compound as 100%.

[1] = 0.5 h, 3 mg/kg I.V., AII 0.05 mcg/kg IV, 30 min post dose
[2] = 0.5 h, 3 mg/kg I.V., AII 0.1 mcg/kg IV, 30 min post dose
[3] = 1 h, 3 mg/kg I.V., AII 0.05 mcg/kg IV, 60 min post dose
[4] = 1 h, 3 mg/kg I.V., AII 0.1 mcg/kg IV, 60 min post dose
[5] = 2 h, 3 mg/kg I.V., AII 0.05 mcg/kg IV, 120 min post dose
[6] = 2 h, 3 mg/kg I.V., AII 0.1 mcg/kg IV, 120 min post dose
[7] = 3 h, 3 mg/kg I.V., AII 0.1 mcg/kg IV, 180 min post dose
[8] = […], 3 mg/kg I.V., AII 0.05 mcg/kg IV, 90 min post dose

CCCCc1nc2ccc([C@@H]3C[C@H]4CCCCN4O3)cc2c(=O)n1Cc1ccc(-c2ccccc2-c2nnn[nH]2)cc1 (relative stereo) [Example 60, (Cis)-2-Butyl-6-(hexahydro-2H-isoxazolo[2,3-a]pyridin-2-yl)-3-[[2'-(1H-tetrazol-5-yl)-[1,1'-biphenyl]-4-yl]methyl]-4(3H)-quinazolinone]
Response Average Change (3 mg/kg I.V., AII 0.05 mcg/kg IV, 240 min post dose): 15 mmHg | Response Average Change (3 mg/kg I.V., AII 0.05 mcg/kg IV, 300 min post dose): 15 mmHg | Response Average Change (3 mg/kg I.V., AII 0.1 mcg/kg IV, 240 min post dose): 18.5 mmHg | Response Average Change (3 mg/kg I.V., AII 0.1 mcg/kg IV, 300 min post dose): 30 mmHg | Response Average Change (10 mg/kg I.V., AII 0.05 mcg/kg IV, 30 min post dose): 0 mmHg | Response Average Change (10 mg/kg I.V., AII 0.05 mcg/kg IV, 60 min post dose): 7.5 mmHg | Response Average Change (10 mg/kg I.V., AII 0.05 mcg/kg IV, 90 min post dose): 14 mmHg | Response Average Change (10 mg/kg I.V., AII 0.05 mcg/kg IV, 120 min post dose): 9.5 mmHg | Response Average Change (10 mg/kg I.V., AII 0.05 mcg/kg IV, 180 min post dose): 12.5 mmHg | Response Average Change (10 mg/kg I.V., AII 0.05 mcg/kg IV, 240 min post dose): 17 mmHg | Response Average Change (10 mg/kg I.V., AII 0.05 mcg/kg IV, 300 min post dose): 12.5 mmHg | Response Average Change (10 mg/kg I.V., AII 0.1 mcg/kg IV, 30 min post dose): 0 mmHg | Response Average Change (10 mg/kg I.V., AII 0.1 mcg/kg IV, 60 min post dose): 7.5 mmHg | Response Average Change (10 mg/kg I.V., AII 0.1 mcg/kg IV, 90 min post dose): 15 mmHg | Response Average Change (10 mg/kg I.V., AII 0.1 mcg/kg IV, 120 min post dose): 12.5 mmHg | Response Average Change (10 mg/kg I.V., AII 0.1 mcg/kg IV, 180 min post dose): 21.5 mmHg | Response Average Change (10 mg/kg I.V., AII 0.1 mcg/kg IV, 240 min post dose): 12.5 mmHg | Response Average Change (10 mg/kg I.V., AII 0.1 mcg/kg IV, 300 min post dose): 22.5 mmHg | inhibition in vivo at 3 mg/kg [1]: 80% | inhibition in vivo at 3 mg/kg [2]: 69% | inhibition in vivo at 10 mg/kg (0.5 h, 10 mg/kg I.V., AII 0.05 mcg/kg IV, 30 min post dose): 100% | inhibition in vivo at 10 mg/kg (0.5 h, 10 mg/kg I.V., AII 0.1 mcg/kg IV, 30 min post dose): 100% | inhibition in vivo at 3 mg/kg [3]: 73% | inhibition in vivo at 3 mg/kg [4]: 79% | inhibition in vivo at 10 mg/kg (1 h, 10 mg/kg I.V., AII 0.05 mcg/kg IV, 60 min post dose): 82% | inhibition in vivo at 10 mg/kg (1 h, 10 mg/kg I.V., AII 0.1 mcg/kg IV, 60 min post dose): 85% | inhibition in vivo at 3 mg/kg [5]: 73% | inhibition in vivo at 3 mg/kg [6]: 56% | inhibition in vivo at 10 mg/kg (2 h, 10 mg/kg I.V., AII 0.05 mcg/kg IV, 120 min post dose): 77% | inhibition in vivo at 10 mg/kg (2 h, 10 mg/kg I.V., AII 0.1 mcg/kg IV, 120 min post dose): 74% | inhibition in vivo at 3 mg/kg [7]: 44% | inhibition in vivo at 10 mg/kg (3 h, 10 mg/kg I.V., AII 0.05 mcg/kg IV, 180 min post dose): 70% | inhibition in vivo at 10 mg/kg (3 h, 10 mg/kg I.V., AII 0.1 mcg/kg IV, 180 min post dose): 56% | inhibition in vivo at 3 mg/kg (4 h, 3 mg/kg I.V., AII 0.05 mcg/kg IV, 240 min post dose): 59% | inhibition in vivo at 3 mg/kg (4 h, 3 mg/kg I.V., AII 0.1 mcg/kg IV, 240 min post dose): 49% | inhibition in vivo at 10 mg/kg (4 h, 10 mg/kg I.V., AII 0.05 mcg/kg IV, 240 min post dose): 59% | inhibition in vivo at 10 mg/kg (4 h, 10 mg/kg I.V., AII 0.1 mcg/kg IV, 240 min post dose): 74% | inhibition in vivo at 3 mg/kg (5 h, 3 mg/kg I.V., AII 0.05 mcg/kg IV, 300 min post dose): 59% | inhibition in vivo at 3 mg/kg (5 h, 3 mg/kg I.V., AII 0.1 mcg/kg IV, 300 min post dose): 18% | inhibition in vivo at 10 mg/kg (5 h, 10 mg/kg I.V., AII 0.05 mcg/kg IV, 300 min post dose): 70% | inhibition in vivo at 10 mg/kg (5 h, 10 mg/kg I.V., AII 0.1 mcg/kg IV, 300 min post dose): 54% | inhibition in vivo at 3 mg/kg [8]: 73% | inhibition in vivo at 10 mg/kg ([…], 10 mg/kg I.V., AII 0.05 mcg/kg IV, 90 min post dose): 66% | inhibition in vivo at 10 mg/kg ([…], 10 mg/kg I.V., AII 0.1 mcg/kg IV, 90 min post dose): 69%

CCCCc1nc2ccc([C@@H]3C[C@H]4CCC(C)(C)N4O3)cc2c(=O)n1Cc1ccc(-c2ccccc2-c2nnn[nH]2)cc1 (relative stereo) [Example 61, (Cis)-2-Butyl-6-(hexahydro-6,6-dimethylpyrrolo[1,2-b]isoxazol-2-yl)-3-[[2'-(1H-tetrazol-5-yl][1,1'-biphenyl]-4-yl]methyl]-4(3H)-quinazolinone]
Response Average Change (3 mg/kg I.V., AII 0.05 mcg/kg IV, 30 min post dose): 7.5 mmHg | Response Average Change (3 mg/kg I.V., AII 0.05 mcg/kg IV, 60 min post dose): 10 mmHg | Response Average Change (3 mg/kg I.V., AII 0.05 mcg/kg IV, 90 min post dose): 6 mmHg | Response Average Change (3 mg/kg I.V., AII 0.05 mcg/kg IV, 120 min post dose): 13.5 mmHg | Response Average Change (3 mg/kg I.V., AII 0.05 mcg/kg IV, 180 min post dose): 15 mmHg | Response Average Change (3 mg/kg I.V., AII 0.1 mcg/kg IV, 30 min post dose): 7.5 mmHg | Response Average Change (3 mg/kg I.V., AII 0.1 mcg/kg IV, 60 min post dose): 12.5 mmHg | Response Average Change (3 mg/kg I.V., AII 0.1 mcg/kg IV, 90 min post dose): 3.5 mmHg | Response Average Change (3 mg/kg I.V., AII 0.1 mcg/kg IV, 120 min post dose): 15 mmHg | Response Average Change (3 mg/kg I.V., AII 0.1 mcg/kg IV, 180 min post dose): 16 mmHg | Response Average Change (5 mg/kg P.O., AII 0.05 mcg/kg IV, 30 min post dose): 27.5 mmHg | Response Average Change (5 mg/kg P.O., AII 0.05 mcg/kg IV, 60 min post dose): 29 mmHg | Response Average Change (5 mg/kg P.O., AII 0.05 mcg/kg IV, 90 min post dose): 30 mmHg | Response Average Change (5 mg/kg P.O., AII 0.05 mcg/kg IV, 120 min post dose): 22.5 mmHg | Response Average Change (5 mg/kg P.O., AII 0.05 mcg/kg IV, 180 min post dose): 35 mmHg | Response Average Change (5 mg/kg P.O., AII 0.1 mcg/kg IV, 30 min post dose): 32.5 mmHg | Response Average Change (5 mg/kg P.O., AII 0.1 mcg/kg IV, 60 min post dose): 35 mmHg | Response Average Change (5 mg/kg P.O., AII 0.1 mcg/kg IV, 90 min post dose): 29 mmHg | Response Average Change (5 mg/kg P.O., AII 0.1 mcg/kg IV, 120 min post dose): 30 mmHg | Response Average Change (5 mg/kg P.O., AII 0.1 mcg/kg IV, 180 min post dose): 35 mmHg | inhibition in vivo at 3 mg/kg [1]: 83% | inhibition in vivo at 3 mg/kg [2]: 84% | inhibition in vivo at 3 mg/kg [3]: 78% | inhibition in vivo at 3 mg/kg [4]: 73% | inhibition in vivo at 3 mg/kg [5]: 70% | inhibition in vivo at 3 mg/kg [6]: 67% | inhibition in vivo at 3 mg/kg (3 h, 3 mg/kg I.V., AII 0.05 mcg/kg IV, 180 min post dose): 67% | inhibition in vivo at 3 mg/kg [7]: 65% | inhibition in vivo at 3 mg/kg [8]: 87% | inhibition in vivo at 3 mg/kg ([…], 3 mg/kg I.V., AII 0.1 mcg/kg IV, 90 min post dose): 92% | inhibition in vivo at 5 mg/kg (0.5 h, 5 mg/kg P.O., AII 0.05 mcg/kg IV, 30 min post dose): 40% | inhibition in vivo at 5 mg/kg (0.5 h, 5 mg/kg P.O., AII 0.1 mcg/kg IV, 30 min post dose): 31% | inhibition in vivo at 5 mg/kg (1 h, 5 mg/kg P.O., AII 0.05 mcg/kg IV, 60 min post dose): 37% | inhibition in vivo at 5 mg/kg (1 h, 5 mg/kg P.O., AII 0.1 mcg/kg IV, 60 min post dose): 26% | inhibition in vivo at 5 mg/kg (2 h, 5 mg/kg P.O., AII 0.05 mcg/kg IV, 120 min post dose): 51% | inhibition in vivo at 5 mg/kg (2 h, 5 mg/kg P.O., AII 0.1 mcg/kg IV, 120 min post dose): 36% | inhibition in vivo at 5 mg/kg (3 h, 5 mg/kg P.O., AII 0.05 mcg/kg IV, 180 min post dose): 24% | inhibition in vivo at 5 mg/kg (3 h, 5 mg/kg P.O., AII 0.1 mcg/kg IV, 180 min post dose): 26% | inhibition in vivo at 5 mg/kg ([…], 5 mg/kg P.O., AII 0.05 mcg/kg IV, 90 min post dose): 35% | inhibition in vivo at 5 mg/kg ([…], 5 mg/kg P.O., AII 0.1 mcg/kg IV, 90 min post dose): 38%
